# Measurements published in PMC4104029, “Mechanism of Action of Compound-13: An α1-Selective Small Molecule Activator of AMPK” (Chemistry & Biology, 2014).
# How the values were obtained:
# [1] = target: T1, AMPKα1β1γ2 with γ2 R531G (Homo sapiens, UniProt Q13131+Q9UGJ0, R531G); assay: AMPKα1β1γ2 mutagenesis, activation assay; type: biochemical; conditions: 1 μM C2; complex purified from COS1 cells
# T1 construct: made in house; host or cells: COS1 cells (transient transfection, FLAG-M2 purification)
# T1 sequence (Q13131 whole entry): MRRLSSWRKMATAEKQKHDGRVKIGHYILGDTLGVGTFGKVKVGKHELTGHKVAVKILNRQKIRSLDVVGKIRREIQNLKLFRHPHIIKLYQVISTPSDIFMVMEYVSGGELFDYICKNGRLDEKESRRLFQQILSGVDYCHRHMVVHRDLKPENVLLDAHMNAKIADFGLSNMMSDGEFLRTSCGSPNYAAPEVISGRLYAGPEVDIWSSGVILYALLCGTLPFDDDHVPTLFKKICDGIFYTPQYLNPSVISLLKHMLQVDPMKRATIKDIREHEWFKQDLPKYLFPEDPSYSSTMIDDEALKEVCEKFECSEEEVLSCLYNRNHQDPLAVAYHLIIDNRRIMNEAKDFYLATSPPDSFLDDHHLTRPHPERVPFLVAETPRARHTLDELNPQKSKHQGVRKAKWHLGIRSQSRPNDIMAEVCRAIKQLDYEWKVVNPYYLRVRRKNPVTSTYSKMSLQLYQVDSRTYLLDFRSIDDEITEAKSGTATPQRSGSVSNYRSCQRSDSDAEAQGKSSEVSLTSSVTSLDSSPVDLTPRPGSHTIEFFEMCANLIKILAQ
# T1 sequence (Q9Y478 whole entry partner): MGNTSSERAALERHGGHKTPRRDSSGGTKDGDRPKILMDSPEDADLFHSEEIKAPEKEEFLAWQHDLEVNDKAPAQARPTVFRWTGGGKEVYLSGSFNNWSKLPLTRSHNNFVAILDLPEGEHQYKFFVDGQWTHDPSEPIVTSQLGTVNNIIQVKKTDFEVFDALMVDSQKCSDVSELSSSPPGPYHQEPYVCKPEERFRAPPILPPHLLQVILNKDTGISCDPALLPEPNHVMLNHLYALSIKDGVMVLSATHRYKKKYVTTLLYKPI
# T1 sequence (Q9UGJ0 whole entry R531G): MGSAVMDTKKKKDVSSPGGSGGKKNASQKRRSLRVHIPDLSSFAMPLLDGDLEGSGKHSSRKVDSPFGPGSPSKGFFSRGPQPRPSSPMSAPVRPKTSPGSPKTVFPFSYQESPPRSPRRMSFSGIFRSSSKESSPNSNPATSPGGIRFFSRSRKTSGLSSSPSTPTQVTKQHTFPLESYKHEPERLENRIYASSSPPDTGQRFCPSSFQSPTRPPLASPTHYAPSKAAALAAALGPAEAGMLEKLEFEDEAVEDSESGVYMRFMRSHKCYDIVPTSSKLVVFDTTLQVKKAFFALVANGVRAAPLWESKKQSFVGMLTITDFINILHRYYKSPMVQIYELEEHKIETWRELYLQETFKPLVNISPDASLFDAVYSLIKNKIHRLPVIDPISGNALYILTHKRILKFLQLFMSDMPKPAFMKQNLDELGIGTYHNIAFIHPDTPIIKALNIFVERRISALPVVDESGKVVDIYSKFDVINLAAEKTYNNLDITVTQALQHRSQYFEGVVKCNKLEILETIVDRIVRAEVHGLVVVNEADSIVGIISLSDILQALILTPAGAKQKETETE
# Procedure: (§1) Figure 2 C2 Is a Partial Agonist of α2 Complexes and Selectively Protects α1 Complexes against Dephosphorylation by PP2C (A and B) Recombinant AMPKα1β1γ1 (A) or AMPKα2β1γ1 (B) was assayed in the presence of AMP (30 μM) and increasing concentrations of C2 (0–20 μM). Results are expressed as fold increase in activity relative to controls without ligand and represent the mean ± SD for three independent experiments. (C and D) The effects of C2 and AMP on dephosphorylation and inactivation of AMPKα1β1γ1 (C) and α2β1γ1 (D) by PP2Cα (present in all assay conditions). Results are expressed as a percentage of control reactions performed in the absence of Mg^2+ and represent the mean ± SD of three independent experiments. Representative blots of pT172 and total AMPKα are shown below the bar charts. […] Results are expressed as the fold increase in activity relative to controls in the absence of compound and represent the mean ± SD for three independent experiments. […]
# (§2) Competitive elution of AMPKγ2 from ATP-Sepharose. […] Resin was pelleted at low speed and the resulting supernatant analysed for the presence of AMPKγ2 by SDS-PAGE and staining with colloidal Coomassie (Generon). […]
# [2] = target: T2, AMPKα1β1γ2 with β1 Δ1–185 (ΔCBD) (Homo sapiens, UniProt Q13131+Q9UGJ0); assay: AMPKα1β1γ2 mutagenesis, activation assay; type: biochemical; conditions: 1 μM C2; complex purified from COS1 cells
# T2 construct: made in house; host or cells: COS1 cells (transient transfection, FLAG-M2 purification)
# T2 sequence (Q13131 whole entry, stated change not applied): as the sequence (Q13131 whole entry) above
# T2 sequence (Q9Y478 186-270 partner): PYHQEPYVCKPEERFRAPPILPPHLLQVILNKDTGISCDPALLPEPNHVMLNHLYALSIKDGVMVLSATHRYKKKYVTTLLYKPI
# T2 sequence (Q9UGJ0 whole entry, stated change not applied): as the sequence (Q9UGJ0 whole entry R531G) above, with G531R counted along it
# Procedure: as §1, §2
structure (smiles),measurement,setting,value
"O=P(O)(O)c1ccc(-c2cc(O)on2)o1 [Compound C2, 5-(5-hydroxyl-isoxazol-3-yl)-furan-2-phosphonic acid]",stimulation of mutant complex,[1],failed to stimulate
same,activation of mutant complex,[2],unaffected
